Source: EP4775586A1, “DEUTERATED TETRACYCLIC DERIVATIVE AND USE THEREOF” (priority 2023, dated 2025)
Where “and” joins values, the source holds several entries; their conditions need not be identical. Identical values can stand only once.

What was measured:
[1] = test system: Mycobacterium tuberculosis H37Rv; experiment: Minimum inhibitory concentration (MIC90) against Mycobacterium tuberculosis H37Rv, Middlebrook 7H9, 96-well plate, 15 days; format: cell-based; conditions: Mycobacterium tuberculosis, H37RV, 360 h
[2] = Pharmacokinetics and lung tissue distribution in mice, LC-MS/MS; format: in vivo, Balb/C mice; conditions: mouse, in vivo, po, 100 mg/kg
Procedure: In this example, the pharmacokinetic parameters and lung tissue distribution of the deuterated compounds YF027, YF032, YF036, and YF044 and their respective non-deuterated control compounds (A, B, C, and D) were determined.
Balb/C mice, male (1 group at each time point, 5 mice per group, 55 mice per compound in total), 7-8 weeks old, weighing about 20 g, animal source: Beijing Vital River Laboratory Animal Technology Co., Ltd.
The test compound was completely dissolved in an 8% Tween-80 aqueous solution. A 10 mg/mL drug liquid was prepared for intraperitoneal injection and intragastric administration.
Single intragastric administration was performed at a dose of 100 mg/kg. The pharmacokinetic differences between the deuterated compounds YF027, YF032, YF036, and YF044 and their respective non-deuterated controls A, B, C, and D were compared.
The mice were fasted overnight before administration. In the experiment, orbital venous blood and lung tissue were collected from the mice at time points of no administration group (0 min) and 10 min, 20 min, 30 min, 1 h, 2 h, 3 h, 4 h, 6 h, 8 h, and 24 h after intragastric administration, and about 300 µL of blood was collected from the eyeballs each time.
The collected blood sample was placed in an anticoagulation tube, and quickly inverted and mixed well. The tube was temporarily placed on ice after being labeled. The blood samples temporarily stored on ice were subjected to low-temperature centrifugation within 1 h at 4 °C at 3000 rpm for 10 min. The supernatant obtained after centrifugation was plasma. The plasma was transferred to a new centrifuge tube and stored in a refrigerator at -80 °C for subsequent detection.
The lung tissues of the mice were collected, washed with pre-cooled normal saline to remove the residual blood and tissue fluid, dried with absorbent paper, weighed with a balance, and placed into a centrifuge tube. The tubes were marked and stored in a refrigerator at -80 °C.
The concentrations of the compounds of the present disclosure and control compounds in plasma and lung tissue were determined using LC-MS/MS. Table 2. Pharmacokinetic parameters of compound YF027 of the present disclosure and control compound A

CYP2A6 = format: in vitro ADME, mouse
Procedure: (§1) This example was to detect the CYP450 metabolic enzyme phenotype of the deuterated compound YF027 and its non-deuterated control compound A (using a CYP450 enzyme metabolic phenotype research kit (recombinant enzymatic method/7 enzymes)-mouse liver microsome test).
(§2) • a. The test compound was prepared into a 40 mM stock solution for later use. 2.5 µL of the stock solution was taken and diluted with DMSO to a test compound concentration of 200 µM, and the compound at this concentration was used in subsequent tests. • b. The working solution concentration of the mixed positive substrates, phenacetin and testosterone, was 200 µM.
(§3) 1) The components of the kit were thawed in an ice bath. The mixture was well mixed by vortexing and then placed on ice for later use. 2) In addition to the microsomes, the other components of the incubation systems were mixed according to the ratios and well mixed by pipetting, and the ratios of the incubation systems are shown below; Table 6. Incubation system of positive control group
(§4) The inhibitors were quinidine, naphthoflavone, pilocarpine, sodium diethyldithiocarbamate, ticlopidine, ketoconazole, and sulfaphenazole, which corresponded to the inhibition of CYP450 enzymes CYP2D6, CYP1A2, CYP2A6, CYP2E1, CYP2C19, CYP3A4, and CYP2C9, respectively. Table 9. Incubation system of negative control group
(§5) 3) Except for the negative control group (Table 9), 3.125 µL of liver microsomes was added to each of the above incubation systems to prepare 125 µL of reaction solution. The reaction solutions were well mixed by vortexing, and then placed in a water bath at 37 °C to initiate the reaction. A timer was set. 4) At time points of 0 min and 90 min, 50 µL of reaction solution was taken, and a pre-cooled acetonitrile solution was added to the reaction solution. The mixture was quickly well mixed by vortexing to stop the reaction. 5) Mass spectrometry detection pretreatment of reaction solution
(§6) The reaction solution was cryopreserved in a refrigerator at -80 °C overnight and then centrifuged for mass spectrometry detection.
(§7) The detection values after 90 min of incubation were processed as ratios relative to the 0-min detection values to determine the metabolic rate of the compounds in different experimental groups after 90 min. The metabolic inhibition rate was then calculated using the formula: Inhibition rate (%) = (1 - metabolic rate of sample with inhibitor/metabolic rate of sample without inhibitor) × 100%, as shown in Table 10 below. […] The metabolic inhibition rate reflects the effect on the metabolic elimination of the drug after adding different selective inhibitors. Therefore, when the metabolic inhibition rate of a specific enzyme is ≥ 25%, the contribution of the specific enzyme to the clearance of the drug under study can be inferred to be ≥ 25% based on the results of the in vitro metabolism study.

CYP2C19 = format: in vitro ADME, mouse
Procedure: as §1, §2, §3, §4, §5, §6, §7

CYP2C9 = format: in vitro ADME, mouse
Procedure: as §1, §2, §3, §4, §5, §6, §7

CYP2D6 = format: in vitro ADME, mouse
Procedure: as §1, §2, §3, §4, §5, §6, §7

CYP3A4 = format: in vitro ADME, mouse
Procedure: as §1, §2, §3, §4, §5, §6, §7

CYP1A2 = target: T1, CYP1A2 (Mus musculus, UniProt P00186); format: in vitro ADME
T1 construct: from tissue; host or cells: mouse liver microsomes (component of a kit)
T1 sequence (P00186 1-513): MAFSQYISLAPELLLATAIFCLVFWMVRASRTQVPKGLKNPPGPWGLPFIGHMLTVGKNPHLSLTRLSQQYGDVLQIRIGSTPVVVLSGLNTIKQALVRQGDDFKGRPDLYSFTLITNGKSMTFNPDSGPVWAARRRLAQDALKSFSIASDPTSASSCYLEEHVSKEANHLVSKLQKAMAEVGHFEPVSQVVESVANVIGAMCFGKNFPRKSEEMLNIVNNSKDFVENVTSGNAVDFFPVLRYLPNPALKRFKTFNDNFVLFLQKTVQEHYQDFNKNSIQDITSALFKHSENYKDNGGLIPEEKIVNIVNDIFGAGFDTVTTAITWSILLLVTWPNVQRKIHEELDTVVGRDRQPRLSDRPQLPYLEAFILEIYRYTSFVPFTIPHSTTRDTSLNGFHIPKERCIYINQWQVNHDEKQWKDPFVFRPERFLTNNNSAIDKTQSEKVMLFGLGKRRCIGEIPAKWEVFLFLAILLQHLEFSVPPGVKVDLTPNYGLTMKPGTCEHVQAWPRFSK
Procedure: as §1, §2, §3, §4, §5, §6
as §7, with “Therefore, when the metabolic inhibition rate of a specific enzyme is ≥ 25%, the contribution of the specific enzyme to the clearance of the drug under study can be inferred to be ≥ 25% based on the results of the in vitro metabolism study.” left out

CYP2E1 = target: T2, CYP2E1 (Mus musculus, UniProt Q05421); format: in vitro ADME
T2 construct: from tissue; host or cells: mouse liver microsomes (component of a kit)
T2 sequence (Q05421 whole entry): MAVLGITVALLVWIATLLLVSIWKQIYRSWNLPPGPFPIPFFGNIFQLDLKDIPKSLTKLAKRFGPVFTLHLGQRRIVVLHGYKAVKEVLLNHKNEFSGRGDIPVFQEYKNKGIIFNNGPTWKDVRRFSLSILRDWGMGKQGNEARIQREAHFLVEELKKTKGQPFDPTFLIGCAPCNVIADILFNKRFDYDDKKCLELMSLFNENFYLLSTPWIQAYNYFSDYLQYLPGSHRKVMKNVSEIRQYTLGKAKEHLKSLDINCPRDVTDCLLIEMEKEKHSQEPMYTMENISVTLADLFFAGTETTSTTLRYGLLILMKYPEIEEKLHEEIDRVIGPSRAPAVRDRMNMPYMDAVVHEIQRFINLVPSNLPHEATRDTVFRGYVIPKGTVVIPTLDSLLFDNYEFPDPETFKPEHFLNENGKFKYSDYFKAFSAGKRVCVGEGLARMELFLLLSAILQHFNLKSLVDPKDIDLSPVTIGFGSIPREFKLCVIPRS
Procedure: as §1, §2, §3, §4, §5, §6
as §7, with “Therefore, when the metabolic inhibition rate of a specific enzyme is ≥ 25%, the contribution of the specific enzyme to the clearance of the drug under study can be inferred to be ≥ 25% based on the results of the in vitro metabolism study.” left out

[3] = test system: Mycobacterium tuberculosis H37Rv; format: in vivo, BALB/c mice
[4] = 28-day repeat-dose toxicity study in mice; format: in vivo, Balb/c mice; conditions: 100 mg/kg intragastric, once daily, 6 days a week, 4 weeks, Balb/c mice
Procedure: Administration groups of the compound YF027 of the present disclosure and its non-deuterated control compound A were set for a 28-day repeat-dose toxicity study in mice. Each compound was administered to 10 Balb/c mice (5 females and 5 males, purchased from Beijing Vital River Laboratory Animal Technology Co., Ltd.) by intragastric administration. The administration was performed once daily for 6 consecutive days a week for 4 consecutive weeks, and an 8% Tween 80 vehicle control group (10 Balb/c mice, 5 females and 5 males) was set for administration at the same volume using the same method. Table 12. Administration information of repeat-dose toxicity assay
During the administration period, the mice were observed every day. The body weight, appearance signs, behavior and activity, fecal traits, and local reactions at the site of administration were recorded. After the end of the administration, the gross anatomy was performed on the mice in the administration group and the control group. The serum of the mice was collected, and the heart, liver, spleen, kidney, lung, and brain tissues and organs were weighed to calculate organ coefficients. The tissue samples of all groups were subjected to histopathological detection, and the serum samples were analyzed for biochemical parameters of liver and kidney functions. The serum biochemical parameters included: alanine aminotransferase (ALT), aspartate aminotransferase (AST), alkaline phosphatase (ALP), urea (UREA), creatinine (CREA), total protein (TP), and albumin (ALB). Statistical analysis was performed to evaluate potential toxic effects of the compounds.

CC(C)(C)c1cc(O)c(CN2CCCCC2)c2c1oc1c3ccc(O)cc3oc(=O)c12 [Compound A, reference compound]
MIC90 [1]: ≤ 3.9 ng/mL | AUC(0-inf) [2]: 121 ng·h/mL | AUC(0-t) at 24 h [2]: 117 ng·h/mL | Cmax [2]: 120 ng/mL and 948 ng/g | Tmax [2]: 0.167 h | half-life [2]: 4.35 h | Inhibition rate (CYP2A6): 4.2% | Inhibition rate (CYP2C19): -19.3% | Inhibition rate (CYP2C9): -2.8% | Inhibition rate (CYP2D6): -8.7% | Inhibition rate (CYP3A4): 76.9% | Inhibition rate (CYP1A2): -11.7% | Inhibition rate (CYP2E1): -26.5% | pulmonary Mycobacterium tuberculosis clearance rate ([3]; 100 mg/kg intragastrically, 4 weeks, mice): 87.7% | reduction of pulmonary bacterial load ([3]; mouse, in vivo): 0.91 log | mortality during the administration period [4]: no mice died
